Experiments:
RPMI-8226 cells = experiment: MTS cell proliferation assay; assay type: cell-based; conditions: Homo sapiens, LSD1-non-sensitive RPMI-8226 cells, 72 h
Procedure: (§1) The myeloid leukemia cell lines MV-4-11, MOLT-4, MOLM-16, HL-60, and the human B lymphocyte cell line […] were purchased from the American Type Culture Collection (ATCC, Manassas, VA, United States). The myeloid leukemia cell line HAL-01 was obtained from the Deutsche Sammlung von Mikroorganismen und Zellkulturen GmbH (DSMZ, Braunschweig, Germany). All cells were cultured in IMDM or RPMI -1640 medium supplemented with 10% FBS, 100 U/mL penicillin, and 100 μg/mL streptomycin. The cells were maintained in a humidified incubator with an atmosphere of 5% CO2 at 37°C.
(§2) The in vitro anti-proliferative activity of the compounds was determined using the CellTiter 96® AQueous NonRadioactive Cell Proliferation Assay Kit (Promega, Madison, United States) as previously described ([Ji et al., 2017]). In brief, 5–10 × 10^3 cells and 180 μL of medium were first seeded into each well of a 96-well plate. Subsequently, the cells were exposed to either 0.2% Dimethyl sulfoxide (DMSO, Aladdin Reagent, Shanghai, China) or a serial dilution of the compounds, prepared from a 10 mM stock solution in DMSO, with the final concentration of DMSO being 0.2% for 72 h. 20 μL of MTS reagent was added to each well, and the culture was incubated in the dark at 37°C for 4 h. Finally, the optical density (OD) was then recorded at 490 nm and 690 nm using a microplate reader from Molecular Devices. The proliferation inhibition rate was calculated according to the following formula: inhibition ratio = (OD of DMSO treated wells - OD of compound treated wells)/(OD of DMSO treated wells - OD of blank wells) × 100%. The IC50 values of the compounds inhibiting cell proliferation were calculated using GraphPad Prism 10 (GraphPad Software Inc., San Diego, CA).

MV-4-11 cells = experiment: MTS cell proliferation assay; assay type: cell-based; conditions: Homo sapiens, MV4-11, LSD1-addicted MV-4-11 leukemia cells, 72 h
Procedure: as §1, §2

LSD1 = biological target: T1, LSD1 (Homo sapiens, UniProt O60341); experiment: Lance Ultra LSD1 demethylase TR-FRET enzyme inhibition assay; assay type: biochemical; conditions: recombinant human LSD1 (172–852 aa) 2 nM, Bio-H3K4me2 substrate, 1 h, TR-FRET; mean ± SD, n = 3
T1 construct: Recombinant human LSD1 (172–852 aa); by word order LSD1 from Sino Biological
Excerpt: These were utilized in both in vitro and in vivo assays. Iscove’s Modified Dulbecco’s Medium (IMDM), Roswell Park Memorial Institute (RPMI)-1640 medium, fetal bovine serum (FBS) and penicillin/streptomycin were purchased from Gibco (Grand Island, New Nork, United States). Recombinant human LSD1 (172–852 aa) and full-length LSD2 were obtained from Sino Biological Inc. and ActiveMotif.
The inhibitory effects of the tested compounds on LSD1 and LSD2 enzymes were methodically assessed using the Lance Ultra LSD1 Histone H3-Lysine 4 Demethylase Assay Kit from PerkinElmer, adhering to previously published methodologies ([Li et al., 2022]). In brief, the reaction was initiated by adding 4 μL of enzyme solution, with concentrations specified at 2 nM for LSD1 or 172 nM for LSD2, 4 μL of substrate solution [2.5 μM Bio-H3K4me2 ([…])], and 2 μL of tested compound to a Tris buffer (50 mM Tris-HCl, 50 mM NaCl, 0.01% Tween 20, 1 mM DTT, 10 μM FAD, 10% glycerol, pH 9.0) at room temperature and incubated for 1 h. Following the incubation, 5 μL of a detection mixture, comprising an Eu-labeled H3K4me0 antibody and ULight Streptavidin, was added to the reaction. The fluorescence intensity was then measured employing TR-FRET mode with excitation and emission wavelengths set at 320 nm and 665 nm, respectively, utilizing the Envision (PerkinElmer) system. Each experiment was performed in triplicate.

60 different kinases = experiment: SelectScreen kinase profiling, whole panel; assay type: biochemical; conditions: ten-point dilution 0.25 μM to 128 μM; read-out: IC50 against each of the 60 evaluated kinases
Procedure: (§3) The kinase selectivity analysis of LTM-1 was performed utilizing the SelectScreen Kinase Profiling Service offered by Thermo Fisher Scientific. In a dose-response assay featuring a ten-point dilution series from 0.25 μM to 128 μM, the inhibitory effects of LTM-1 on substrate phosphorylation reactions catalyzed by a panel of kinases were assessed. Consequently, the half-maximal inhibitory concentrations (IC50 values) for each kinase were determined.

KDR = KDR (Homo sapiens, UniProt P35968); experiment: SelectScreen kinase profiling; assay type: biochemical
KDR, sequence (P35968 20-1356): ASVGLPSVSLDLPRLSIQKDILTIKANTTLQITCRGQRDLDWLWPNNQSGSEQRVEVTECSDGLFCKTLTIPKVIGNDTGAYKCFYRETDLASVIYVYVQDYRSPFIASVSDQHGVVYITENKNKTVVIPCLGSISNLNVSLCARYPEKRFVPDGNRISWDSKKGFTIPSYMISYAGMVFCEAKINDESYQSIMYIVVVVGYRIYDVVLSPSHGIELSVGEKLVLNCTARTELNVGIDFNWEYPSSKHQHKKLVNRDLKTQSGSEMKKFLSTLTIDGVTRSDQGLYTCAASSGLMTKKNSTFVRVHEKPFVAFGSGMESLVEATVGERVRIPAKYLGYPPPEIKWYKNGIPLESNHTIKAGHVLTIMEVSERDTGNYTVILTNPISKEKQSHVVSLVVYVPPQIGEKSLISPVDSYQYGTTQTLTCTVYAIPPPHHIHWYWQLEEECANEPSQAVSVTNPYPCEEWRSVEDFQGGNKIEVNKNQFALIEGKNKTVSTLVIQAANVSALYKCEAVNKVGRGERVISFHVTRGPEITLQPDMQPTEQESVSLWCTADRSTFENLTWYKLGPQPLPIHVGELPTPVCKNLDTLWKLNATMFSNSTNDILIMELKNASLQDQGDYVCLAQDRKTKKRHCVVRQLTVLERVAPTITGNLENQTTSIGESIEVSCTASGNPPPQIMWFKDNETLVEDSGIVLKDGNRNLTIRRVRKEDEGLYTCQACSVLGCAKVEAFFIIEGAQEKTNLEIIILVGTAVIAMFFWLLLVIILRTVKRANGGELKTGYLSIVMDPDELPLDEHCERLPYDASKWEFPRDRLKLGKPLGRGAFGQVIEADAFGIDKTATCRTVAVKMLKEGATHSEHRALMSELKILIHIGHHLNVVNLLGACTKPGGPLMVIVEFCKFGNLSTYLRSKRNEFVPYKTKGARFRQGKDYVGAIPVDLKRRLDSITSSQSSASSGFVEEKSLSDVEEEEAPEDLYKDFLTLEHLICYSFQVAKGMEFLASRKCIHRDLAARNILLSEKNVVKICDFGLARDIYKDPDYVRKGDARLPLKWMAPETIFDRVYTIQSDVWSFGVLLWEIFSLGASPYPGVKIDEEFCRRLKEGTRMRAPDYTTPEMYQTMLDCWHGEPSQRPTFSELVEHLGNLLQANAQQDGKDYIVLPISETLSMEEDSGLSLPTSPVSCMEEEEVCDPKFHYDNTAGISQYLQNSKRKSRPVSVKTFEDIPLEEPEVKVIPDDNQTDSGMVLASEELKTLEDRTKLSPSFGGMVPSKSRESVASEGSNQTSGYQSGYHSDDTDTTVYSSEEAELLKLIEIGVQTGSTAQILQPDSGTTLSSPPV
Procedure: as §3

MET = MET (Homo sapiens, UniProt P08581); experiment: SelectScreen kinase profiling; assay type: biochemical
MET, sequence (P08581 25-1390): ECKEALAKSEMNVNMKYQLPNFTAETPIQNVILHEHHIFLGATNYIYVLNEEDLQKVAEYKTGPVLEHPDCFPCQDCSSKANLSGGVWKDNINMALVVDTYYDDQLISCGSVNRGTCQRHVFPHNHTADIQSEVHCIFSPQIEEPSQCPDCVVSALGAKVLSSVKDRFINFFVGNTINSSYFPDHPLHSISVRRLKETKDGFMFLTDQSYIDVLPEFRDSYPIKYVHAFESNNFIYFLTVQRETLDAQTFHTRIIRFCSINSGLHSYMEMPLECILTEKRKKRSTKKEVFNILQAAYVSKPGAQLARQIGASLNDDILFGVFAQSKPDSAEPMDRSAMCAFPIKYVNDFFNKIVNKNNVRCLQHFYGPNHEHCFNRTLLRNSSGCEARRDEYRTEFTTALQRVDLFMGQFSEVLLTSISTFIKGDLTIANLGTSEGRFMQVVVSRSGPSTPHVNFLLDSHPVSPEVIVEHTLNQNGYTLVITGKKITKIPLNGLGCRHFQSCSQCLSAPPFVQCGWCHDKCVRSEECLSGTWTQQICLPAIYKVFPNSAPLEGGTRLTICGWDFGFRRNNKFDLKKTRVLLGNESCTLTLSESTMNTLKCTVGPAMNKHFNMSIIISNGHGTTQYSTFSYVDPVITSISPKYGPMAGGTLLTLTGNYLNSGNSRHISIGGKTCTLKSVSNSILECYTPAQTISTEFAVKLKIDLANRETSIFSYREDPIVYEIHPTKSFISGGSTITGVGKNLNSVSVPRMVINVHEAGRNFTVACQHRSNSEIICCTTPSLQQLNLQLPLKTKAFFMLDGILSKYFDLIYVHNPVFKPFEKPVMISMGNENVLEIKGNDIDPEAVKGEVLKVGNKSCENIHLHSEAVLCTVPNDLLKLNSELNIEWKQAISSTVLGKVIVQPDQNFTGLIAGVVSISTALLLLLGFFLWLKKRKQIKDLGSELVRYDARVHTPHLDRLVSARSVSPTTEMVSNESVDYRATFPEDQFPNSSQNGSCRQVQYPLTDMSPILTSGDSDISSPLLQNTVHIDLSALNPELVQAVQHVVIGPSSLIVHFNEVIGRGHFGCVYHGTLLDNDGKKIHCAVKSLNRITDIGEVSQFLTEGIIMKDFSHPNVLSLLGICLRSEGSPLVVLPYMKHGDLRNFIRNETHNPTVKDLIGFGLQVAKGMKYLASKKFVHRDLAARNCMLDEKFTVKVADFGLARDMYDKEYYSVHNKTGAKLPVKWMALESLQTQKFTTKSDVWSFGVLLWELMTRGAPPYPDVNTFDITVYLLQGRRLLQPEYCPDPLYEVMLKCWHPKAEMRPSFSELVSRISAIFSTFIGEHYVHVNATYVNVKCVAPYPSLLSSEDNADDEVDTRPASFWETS
Procedure: as §3

PTK2 = PTK2 (Homo sapiens, UniProt Q05397); experiment: SelectScreen kinase profiling; assay type: biochemical
Procedure: as §3

ALK = ALK (Homo sapiens, UniProt Q9UM73); experiment: SelectScreen kinase profiling; assay type: biochemical
ALK, sequence (Q9UM73 19-1620): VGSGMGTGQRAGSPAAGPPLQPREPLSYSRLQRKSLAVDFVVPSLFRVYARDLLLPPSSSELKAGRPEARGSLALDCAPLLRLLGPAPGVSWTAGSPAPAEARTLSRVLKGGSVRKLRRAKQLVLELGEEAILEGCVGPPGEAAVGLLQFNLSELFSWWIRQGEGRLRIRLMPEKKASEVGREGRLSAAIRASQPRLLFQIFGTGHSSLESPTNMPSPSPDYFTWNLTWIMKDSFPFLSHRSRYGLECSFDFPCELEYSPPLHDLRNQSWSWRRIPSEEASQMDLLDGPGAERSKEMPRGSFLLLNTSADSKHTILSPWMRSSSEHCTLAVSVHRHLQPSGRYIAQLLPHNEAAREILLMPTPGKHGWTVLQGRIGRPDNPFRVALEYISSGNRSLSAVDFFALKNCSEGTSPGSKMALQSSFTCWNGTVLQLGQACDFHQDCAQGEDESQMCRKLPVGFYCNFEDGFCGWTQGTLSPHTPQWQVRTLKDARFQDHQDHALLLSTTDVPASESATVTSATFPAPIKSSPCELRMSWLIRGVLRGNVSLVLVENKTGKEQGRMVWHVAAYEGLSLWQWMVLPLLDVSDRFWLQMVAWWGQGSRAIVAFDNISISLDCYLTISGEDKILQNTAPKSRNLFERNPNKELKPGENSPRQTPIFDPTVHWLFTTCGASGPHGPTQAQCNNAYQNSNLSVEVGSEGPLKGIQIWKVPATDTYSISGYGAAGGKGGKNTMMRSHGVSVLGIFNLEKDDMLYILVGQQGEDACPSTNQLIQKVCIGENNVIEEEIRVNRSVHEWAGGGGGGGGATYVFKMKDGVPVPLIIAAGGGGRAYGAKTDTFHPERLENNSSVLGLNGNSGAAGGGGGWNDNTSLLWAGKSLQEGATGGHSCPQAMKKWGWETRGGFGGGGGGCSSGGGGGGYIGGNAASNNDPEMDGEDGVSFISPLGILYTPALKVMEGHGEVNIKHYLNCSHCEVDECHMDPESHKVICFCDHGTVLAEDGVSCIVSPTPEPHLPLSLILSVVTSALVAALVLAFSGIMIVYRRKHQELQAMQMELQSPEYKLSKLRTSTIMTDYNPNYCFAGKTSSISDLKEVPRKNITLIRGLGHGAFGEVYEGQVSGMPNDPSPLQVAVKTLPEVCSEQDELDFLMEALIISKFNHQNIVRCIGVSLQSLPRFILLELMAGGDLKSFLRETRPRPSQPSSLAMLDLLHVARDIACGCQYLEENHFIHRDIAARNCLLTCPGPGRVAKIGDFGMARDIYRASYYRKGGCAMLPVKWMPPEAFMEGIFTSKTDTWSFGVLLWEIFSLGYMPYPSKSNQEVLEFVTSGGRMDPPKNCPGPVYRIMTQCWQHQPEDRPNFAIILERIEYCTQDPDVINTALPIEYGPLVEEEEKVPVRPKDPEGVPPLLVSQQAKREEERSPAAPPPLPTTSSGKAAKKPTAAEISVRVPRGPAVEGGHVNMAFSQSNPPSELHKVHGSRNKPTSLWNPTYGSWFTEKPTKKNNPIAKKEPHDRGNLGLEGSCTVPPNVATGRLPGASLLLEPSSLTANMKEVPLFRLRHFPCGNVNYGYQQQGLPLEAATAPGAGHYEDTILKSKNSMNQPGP
Procedure: as §3

[1] = Toxicity in xenografted mice: body weight, serum liver and kidney indices; assay type: in vivo, BALB/c nude mice
Excerpt: (§4) Given the potent inhibitory effect of LTM-1 on MV-4-11 cell proliferation in vitro, a previously reported xenograft animal model was established to measure the anti-tumor growth and development effects of LTM-1 ([Zhou et al., 2022]). The animal experimental design of this study was reviewed and confirmed by the Ethics Committee of China Pharmaceutical University. The experimental procedures complied with the ARRIVE guidelines (https://arriveguidelines.org/). Female BALB/c nude mice aged 4–6 weeks were purchased from Changzhou Cave Animal Co., Ltd. (Changzhou, China). Mice were housed in a specific pathogen-free (SPF) environment, where the temperature was precisely regulated to 25°C ± 2°C, the relative humidity was kept at 50% ± 5%, and a strict 12-h light-dark cycle was maintained. A 200 μL suspension of MV-4-11 cells (1 × 10^6 cells) was injected subcutaneously into the mice. […] The mice were administered drugs via intraperitoneal injection daily, with a total treatment period of 15 days. Mouse weight and tumor volume were measured every 3 days. The tumor volume was calculated using the formula (c × c × d)/2 (where c represents the smallest diameter, and d represents the largest diameter). When the animals could no longer access food and/or the average tumor diameter exceeded 15 mm, the mice were anesthetized with 2.5% isoflurane and euthanized by cervical dislocation to minimize suffering. In addition, the liver and kidney index levels were measured using an automatic biochemical analyzer to evaluate the toxic effects of LTM-1 on mice.

MV-4-11 xenograft = MV-4-11 xenograft model, anti-tumor activity; assay type: in vivo, BALB/c nude mice; conditions: 10 mg/kg intraperitoneal daily, 15 days, versus vehicle group
Excerpt: as §4, with “When the animals could no longer access food and/or the average tumor diameter exceeded 15 mm, the mice were anesthetized with 2.5% isoflurane and euthanized by cervical dislocation to minimize suffering.” left out

[2] = compared to the vehicle control group

In the case of `O=S(=O)(c1ccc(C(O)CO)c(C(F)(F)F)c1)N1CCc2cc(C3CC3NCC3CCNCC3)ccc21` (stereo not drawn) [LTM-1], the IC50 (RPMI-8226 cells) is reported as > 100 µM, the IC50 (MV-4-11 cells) is reported as 0.16 ± 0.01 µM and the IC50 (LSD1) is reported as 0.00211 ± 0.00014 µM. The IC50 (60 different kinases) was > 10 µM, the IC50 (KDR) was > 10 µM and the IC50 (MET) was > 10 µM. The IC50 (PTK2) was > 10 µM, the IC50 (ALK) was > 10 µM and the “body weight of mice” value ([1]; 10 mg/kg intraperitoneal daily, 15 days, versus vehicle group) was “no significant differences”. The “liver and kidney function indices” value ([1]; LTM-1 treated MV-4-11 xenografted mice) was “did not induce significant changes”, the “alanine aminotransferase (ALT) level in mouse serum” value [1, 2] was “no significant changes” and the “aspartate aminotransferase (AST) level in mouse serum” value [1, 2] was “no significant changes”. For the same molecule, the “blood urea nitrogen (BUN) level in mouse serum” value [1, 2] was “no significant changes”, the “creatinine (CRE) level in mouse serum” value [1, 2] was “no significant changes” and the “tumor growth (tumor volume)” value (MV-4-11 xenograft) was “significantly reduced”.
